Reference: US9493453B2, “Piperazinyl pyrimidine derivatives, preparation method and use thereof” (INSTITUTE OF PHARMACOLOGY AND TOXICOLOGY ACADEMY OF …, priority 2012, dated 2016)
Like-named read-outs stand apart in the source and are kept apart here.

Experiments:
mice rhinitis model = experiment: Mice rhinitis model experiment (OVA-sensitized BALB/c mice); assay type: in vivo; conditions: Example 8 compound 1 μg/Kg, budesonide 1.28 mg/Kg
Protocol: Mice Rhinitis Model Experiment
Female BALB/c mice (6-8 weeks) were sensitized with chicken ovalbumin (OVA, Sigma-Aldrich, St Louis, Mo., USA). The compound of the present invention (for example, the compound of Example 8) was administered to nasal mucosa, at a dose 1 μg/Kg. Glucocorticoid hormonal drug budesonide, a first-line clinical drug, was used as positive control, at a dose 1.28 mg/Kg. Meanwhile, there were provided a normal group wherein the mice were not sensitized and not administered, and an OVA group wherein the mice were sensitized and not administered. The following five indicators were detected: the number of sneezing, the number of nasal scratching within 10 min after administration; IL-4 level in bronchoalveolar lavage fluid; serum IgE level; lung tissue inflammation score. Lung tissue inflammation score was rated according to a single blind method: inflammation was divided into four levels from mild to severe, marked as 0-3 scores: 0 representing no detected inflammation; 1 representing occasional inflammatory cells being visible; 2 representing bronchus or blood vessel being surrounded by eosinophils, but less than five cell layers; 3 representing bronchus or blood vessel being surrounded by a large number of eosinophils, with 5 or more cell layers.

CCR4 receptor = biological target: T1, CCR4 receptor (Homo sapiens, UniProt P51679); experiment: Inhibition of MDC/TARC/C27 mediated chemotactic response of CCR4-transfected HEK293 cells (Boyden chamber); assay type: cell-based; conditions: chemotactic inhibition rate, compound 1 μM, HEK293 cells transfected with pCDI-CCR4, 5 hours
T1 construct: cDNA fragments of receptor open reading frame were respectively inserted into pcDI; expressed in transfected cells; host or cells: HEK293 cells, transiently transfected by electroporation with pCDI-CCR4
T1 sequence (P51679 1-360): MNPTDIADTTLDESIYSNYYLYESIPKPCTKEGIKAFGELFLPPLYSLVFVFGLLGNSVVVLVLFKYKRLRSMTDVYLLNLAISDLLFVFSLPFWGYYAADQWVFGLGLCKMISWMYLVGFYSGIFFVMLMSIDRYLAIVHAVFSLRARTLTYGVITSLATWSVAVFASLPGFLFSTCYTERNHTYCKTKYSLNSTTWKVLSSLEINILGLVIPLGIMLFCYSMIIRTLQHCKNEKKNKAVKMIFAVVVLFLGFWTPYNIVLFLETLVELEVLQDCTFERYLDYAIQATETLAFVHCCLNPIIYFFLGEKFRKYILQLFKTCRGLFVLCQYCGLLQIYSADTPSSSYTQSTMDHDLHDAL
Text: Whether or not compounds 1-14 of the present invention can inhibit MDC (Peprotech) mediated chemotactic response of HEK293 cells was studied by using Boyden chamber (Neuro Probe, Inc.).
1. Construction of Receptor Expression Plasmid:
cDNA fragments including human chemokine receptor open reading frame were obtained by the following method: CCR4 receptor was cloned from a cDNA library of K562 cells through polymerase chain reaction (PCR). Primers were designed according to the sequence of Gen-Bank™ accession: CCR4 (NM_005508.2). cDNA fragments of receptor open reading frame were respectively inserted into pcDI (vector transformed in the chamber: eukaryotic expression vector obtained by replacing a BglII KpnI fragment of pcDNA3 (Invitrogen Corporation) plasmid with a BglII KpnI fragment of pCI (Promega Corporation) plasmid) expression vector so as to make them effectively express in HEK293 cells.
HEK293 cells were cultured in RPMI 1640 (Life Technologies, Inc.) containing 10% heat-inactivated fetal bovine serum, 100 U/mL penicillin, 100 μg/mL streptomycin. Each 4×10^6 HEK293 cells/400 μL were transiently transfected through electroporation with 15 μg chemokine receptor expression plasmids, under the condition of 120 V for 20 ms, the instrument used being electric pulse generator (Electro Square porator ECM 830, BTX, San Diego, Calif.). After 36-48 hr, chemotactic assay was carried out.
3. The Inhibitory Effect on MDC/TARC/C27 Mediated Chemotactic Response of HEK293 Cells
Chemokines MDC/TARC/C27 were diluted to 10 ng/mL with RPMI1640 (Life Technologies, Inc.), 0.1% BSA (Sigma), and added to lower holes in a 48-hole chemotactic chamber, 27.5 μL each hole. Eukaryotic expression plasmids pCDI-CCR4 were electrically shifted to HEK293 cells, and cultured normally for 36 hr. The cells were digested, re-suspended with RPMI1640, 10% FBS (Life Technologies, Inc.), and subjected to rotary incubation at 37° C. for 6.5 hours. The cells were washed twice with RPMI1640, and suspended in RPMI1640, 0.1% BSA, with a final concentration of 1×10^6/mL. The cells and the candidate compound dissolved in DMSO (Sigma) were subjected to rotary incubation at room temperature for half an hour, the final concentration of the candidate compound being 1 μM, and the final concentration of DMSO being 0.1%, and then added to upper holes in the chemotactic chamber, 55 μL each hole. The two layers were spaced by a polycarbon membrane with pore size of […] (Neuro Probe, Inc.). The chemotactic reaction was carried out in 5% CO2 at 37° C. for 5 hours. There were three groups of control in the experiment, wherein the first group was positive control, in which the transfected cells were directly added to upper holes without incubated with the candidate compound, while chemokines MDC/TARC/C27 were added to lower holes. The second group was negative control, in which the transfected cells were directly added to upper holes without incubated with the candidate compound, while RPMI1640, 0.1% BSA were added to lower holes. The third group was solvent DMSO control of the candidate compound, in which the transfected cells and DMSO were incubated at room temperature, the final concentration of DMSO being 0.1%, while chemokines MDC/TARC/C27 were added to lower holes. After completion of the chemotactic reaction, the membrane was removed, fixed and stained, and, at 400× high magnification, five horizons were randomly selected to count the cells, which were then summed. The ratio of the sum of the numbers of cells in five horizons at high magnification in each experimental group to the sum of the numbers of cells in five horizons at high magnification in the negative control group is obtained as Chemotactic Index (CI). Chemotactic inhibition rate was calculated as follows: […]

[1] = OVA-sensitized female BALB/c mice, nasal mucosa, within 10 min after administration
[2] = chemokine C27 10 ng/mL, read-out: C27 inhibition rate
[3] = chemokine MDC 10 ng/mL, read-out: MDC inhibition rate
[4] = chemokine TARC 10 ng/mL, read-out: TARC inhibition rate

Row | Compound | inhibition at 1 µM (CCR4 receptor; [2]) [%] | inhibition at 1 µM (CCR4 receptor; [3]) [%] | inhibition at 1 µM (CCR4 receptor; [4]) [%] | IL-4 (mice rhinitis model; IL-4 level in bronchoalveolar lavage fluid, OVA-sensitized mice) [pg/mL] | Nasal scratching (mice rhinitis model; [1]) [times/10 mins] | Sneezing (mice rhinitis model; [1]) [times/10 mins] | Inflammation score (mice rhinitis model; lung tissue inflammation score 0-3, single blind, OVA-sensitized mice) | IgE (mice rhinitis model; serum IgE level, OVA-sensitized mice) [ng/mL]
1 | CCCC1O[C@@H]2C[C@H]3[C@@H]4CCC5=CC(=O)C=C[C@]5(C)[C@H]4[C@@H](O)C[C@]3(C)[C@]2(C(=O)CO)O1 (some centres unmarked) [Budesonide, budesonide, reference compound] |  |  |  | 2.9 ± 1.5 | 12.0 ± 1.3 | 31.7 ± 4.0 | 1.5 ± 0.6 | 2822 ± 51
2 | CCC(=O)N1CCN(c2nc(NCc3ccc(Cl)cc3Cl)cc(N(C)CC(OC)OC)n2)CC1 [Compound 1, 1-{4-{4-[(2,4-dichlorobenzyl)amino]-6-[(2,2-dimethoxyethyl)methylamino]pyrimidin-2-yl}piperazin-1-yl}propanone] | 25.3 | 36.3 | 46.4 |  |  |  |  | 
3 | COC(CN(C)c1cc(NCc2ccc(Cl)cc2Cl)nc(N2CCN(C(=O)CCSC)CC2)n1)OC [Compound 3, 1-{4-{4-[(2,4-dichlorobenzyl)amino]-6-[(2,2-dimethoxyethyl)methylamino]pyrimidin-2-yl}piperazin-1-yl}-3-methylthiopropanone] | 43.9 | 35.5 | 58.3 |  |  |  |  | 
4 | O=C([C@@H]1CSCCN1)N1CCN(c2nc(Cl)cc(NCc3ccc(Cl)cc3Cl)n2)CC1 [Compound 9, (R)-{4-{4-chloro-6-[(2,4-dichlorobenzyl)amino]pyrimidin-2-yl}piperazin-1-yl}(thiomorpholin-3-yl)methanone] | 39.5 | 22.2 | 10.4 |  |  |  |  | 
5 | CCC(=O)N1CCN(c2nc(NCc3ccc(Cl)cc3Cl)c3cccnc3n2)CC1 [Compound 10, 1-{4-{4-[(2,4-dichlorobenzyl)amino]pyrido[2,3-d]pyrimidin-2-yl}piperazin-1-yl}propanone] | 38.3 | 32.3 | 59.8 |  |  |  |  | 
6 | O=C(C1CCCCC1)N1CCN(c2nc(NCc3ccc(Cl)cc3Cl)c3cccnc3n2)CC1 [Compound 12, cyclohexyl{4-{4-[(2,4-dichlorobenzyl)amino]pyrido[2,3-d]pyrimidin-2-yl}piperazin-1-yl}methanone] | 6.17 | 57.2 | 61.1 |  |  |  |  | 

Second part, led by results:

Row | inhibition at 1 µM (CCR4 receptor; [2]) [%] | inhibition at 1 µM (CCR4 receptor; [3]) [%] | inhibition at 1 µM (CCR4 receptor; [4]) [%] | Compound | IL-4 (mice rhinitis model; IL-4 level in bronchoalveolar lavage fluid, OVA-sensitized mice) [pg/mL] | Nasal scratching (mice rhinitis model; [1]) [times/10 mins] | Sneezing (mice rhinitis model; [1]) [times/10 mins] | Inflammation score (mice rhinitis model; lung tissue inflammation score 0-3, single blind, OVA-sensitized mice) | IgE (mice rhinitis model; serum IgE level, OVA-sensitized mice) [ng/mL]
7 | 39 | 36.1 | 41.7 | COC(CN(C)c1cc(NCc2ccc(Cl)cc2Cl)nc(N2CCN(C(=O)C(C)C)CC2)n1)OC [Compound 2, 1-{4-{4-[(2,4-dichlorobenzyl)amino]-6-[(2,2-dimethoxyethyl)methylamino]pyrimidin-2-yl}piperazin-1-yl}-2-methylpropanone] |  |  |  |  | 
8 | 34.6 | 54.9 | 45.2 | CCC(=O)N1CCN(c2nc(NCc3ccc(Cl)cc3Cl)cc(N(CCOC)CCOC)n2)CC1 [Compound 4, 1-{4-{4-[bis(2-methoxyethyl)amino]-6-(2,4-dichlorobenzylamino)-pyrimidin-2-yl}piperazin-1-yl}propanone] |  |  |  |  | 
9 | 40.1 | 54.5 | 39.1 | COCCN(CCOC)c1cc(NCc2ccc(Cl)cc2Cl)nc(N2CCN(C(=O)C(C)C)CC2)n1 [Compound 5, 1-{4-{4-[bis(2-methoxyethyl)amino]-6-(2,4-dichlorobenzylamino)-pyrimidin-2-yl}piperazin-1-yl}-2-methylpropanone] |  |  |  |  | 
10 | 51.2 | 19.4 | 55.7 | COCCN(CCOC)c1cc(NCc2ccc(Cl)cc2Cl)nc(N2CCN(C(=O)CCSC)CC2)n1 [Compound 6, 1-{4-{4-[bis(2-methoxyethyl)amino]-6-(2,4-dichlorobenzylamino)-pyrimidin-2-yl}piperazin-1-yl}-3-methylthiopropanone] |  |  |  |  | 
11 | 37.9 | 30 | 51 | COCCN(CCOC)c1cc(NCc2ccc(Cl)cc2Cl)nc(N2CCN(C(=O)C3CCCCC3)CC2)n1 [Compound 7, {4-{4-[bis(2-methoxyethyl)amino]-6-(2,4-dichlorobenzylamino)-pyrimidin-2-yl}piperazin-1-yl}cyclohexylmethanone] |  |  |  |  | 
12 | 35.2 | 32.3 | 61.4 | CC(C)C(=O)N1CCN(c2nc(NCc3ccc(Cl)cc3Cl)c3cccnc3n2)CC1 [Compound 11, 1-{4-{4-[(2,4-dichlorobenzyl)amino]pyrido[2,3-d]pyrimidin-2-yl}piperazin-1-yl}-2-methylpropanone] |  |  |  |  | 
13 | 16.7 | 48.8 | 35.2 | CCCN1CCN(c2nc(NCc3ccc(Cl)cc3Cl)c3cccnc3n2)CC1 [Compound 13, 4-[(2,4-dichlorobenzyl)amino]-2-(4-propylpiperazin-1-yl)pyrido[2,3-d]pyrimidine] |  |  |  |  | 
14 | 30.5 | 62.1 | 73.6 | O=C([C@@H]1CSCCN1)N1CCN(c2nc(NCc3ccc(Cl)cc3Cl)c3cccnc3n2)CC1 [Compound 14, (R)-{4-{4-[(2,4-dichlorobenzyl)amino]pyrido[2,3-d]pyrimidin-2-yl}piperazin-1-yl}(thiomorpholin-3-yl)methanone] |  |  |  |  | 
